{"source": "patent US20230101312A1", "about": "“SOS1 INHIBITORS” (Mirati Therapeutics, Inc., priority 2020, published 2023)", "system": "MKN1 cells or H358", "test": "pERK inhibition in-cell western", "format": "cell-based", "details": "MKN1 or H358 cells (cell line not given), 1 hour with compound, GAPDH normalized", "protocol": "This Example illustrates that exemplary compounds of the present invention prevent KRas-mediated GTP nucleotide exchange mediated by SOS1 to inhibit KRas activity thereby inhibiting the generation of the downstream effector pERK. MKN1 cells (15,000/w) or H358 (30,000/w) were seeded in a black clear flat bottom 96-well cell culture plate (Corning, #3904) and incubated at 37° C. overnight. Assay day 1, cells were dosed with compounds of Formula (I) with a 10 μm starting concentration and serially diluted 3× for a total of 9 concentrations. The cells were incubated for 1 hour with the compounds solubilized in DMSO at 37° C. Cells were immediately fixed by adding 50 μL of 4% formaldehyde to all wells in a fume hood and the plates were incubated for 20 minutes at room temperature. The formaldehyde was discarded from the plates and 150 μL of ice-cold methanol was added to permeabilize the cells for 10 minutes at −20° C. The methanol was discarded from each of the plates and any liquid remaining in the plate by tapping the plate against paper towels. Cells were then blocked with 150 μL of Odyssey blocking buffer (LI-COR Biosciences #927-50010) using 0.05% Tween for 1 hour at room temperature on a shaker. […] The IC50 values were then calculated with the Graph pad Prism software."}
{"smiles": "CNCc1ccccc1-c1csc([C@@H](C)Nc2ncc(C#N)c3cc(OC)c(OC)cc23)c1", "note": "[Example 1-1, (R)-6,7-dimethoxy-1-((1-(4-(2-((methylamino)methyl)phenyl)thiophen-2-yl)ethyl)amino)isoquinoline-4-carbonitrile]", "values": [{"measurement": "IC50", "result": 2050, "unit": "nM"}]}
